Measured values taken from ChEMBL document CHEMBL5143608, “Peptide-based long-acting co-agonists of GLP-1 and cholecystokinin 1 receptors as novel anti-diabesity agents” (Eur J Med Chem, 2022).
Active and inactive are the calls of the source. The rule behind the calls is not given here.

What was measured:
[1] = Hepatotoxicity in db/db mouse assessed as aspartate aminotransferase level in plasma at 100 nmol/kg, sc administered once daily for 7 days; assay type: toxicity, organism-based; conditions: in vivo, 168 h, time 7 day
Mus musculus [2] = assay: Anti-diabesity activity against db/db mouse assessed as HbA1c level at 25 nmol/kg, sc administered every 2 days for 3 weeks; assay type: functional, organism-based; conditions: time 21.0 day
Mus musculus [3] = assay: Insulinotropic activity in db/db mouse assessed as elevation of plasma insulin level at 25 nmol/kg, ip administered 30 min before oral glucose administration and measured upto 60 mins by ELISA; assay type: functional, organism-based; conditions: time <= 90.0 min
[4] = Pancreatic insult activity in db/db mouse assessed as increase in lipase level in plasma at 100 nmol/kg, sc administered once daily for 7 days; assay type: toxicity, organism-based; conditions: in vivo, 168 h, time 7 day
Mus musculus [5] = assay: Anti-diabesity activity against db/db mouse assessed as reduction in HbA1c level at 25 nmol/kg, sc administered every 2 days and measured on day 43; assay type: functional, organism-based; conditions: time 43.0 day
Mus musculus [6] = assay: Hypoglycemic activity in ICR mouse assessed as improvement in glucose tolerance at 25 nmol/kg, ip administered 30 min before oral glucose administration and measured upto 120 mins by OGTT; assay type: functional, organism-based
Mus musculus [7] = assay: Hypoglycemic activity in db/db mouse assessed as improvement in glucose tolerance at 25 nmol/kg, ip administered 30 min before oral glucose administration and measured upto 120 mins by OGTT; assay type: functional, organism-based
Mus musculus [8] = assay: Anti-diabesity activity against db/db mouse assessed as increase in islet area at 25 nmol/kg, sc administered every 2 days for 3 weeks by H and E staining based analysis; assay type: functional, organism-based; conditions: time 21.0 day
Mus musculus [9] = assay: Anti-diabesity activity in db/db mouse assessed as reduction in body weight at 100 nmol/kg, sc administered once daily for 7 days; assay type: functional, organism-based; conditions: time 7.0 day
Mus musculus [10] = assay: Anti-diabesity activity in DIO C57BL/6 mouse assessed as reduction in cumulative food intake at 100 nmol/kg, sc administered once daily for 7 days; assay type: functional, organism-based; conditions: time 7.0 day
Mus musculus [11] = assay: Anorectic activity in ICR mouse assessed as decrease in food intake at 25 nmol/kg, ip and measured after 9 hrs; assay type: functional, organism-based
Mus musculus [12] = assay: Hypoglycemic activity in sc dosed non-fasted db/db mouse assessed as reduction in blood glucose level measured upto 48 hrs; assay type: functional, organism-based; conditions: dose 10-100 nmol/kg, DDE = dose-dependent effect
Mus musculus [13] = assay: Anti-diabesity activity against db/db mouse assessed as increase in IOD of insulin in pancreas at 25 nmol/kg, sc administered every 2 days for 12 weeks by immunohistochemistry; assay type: functional, organism-based
Mus musculus [14] = assay: Anti-diabesity activity against DIO C57BL/6 mouse assessed as increase in adiponectin level in plasma at 25 nmol/kg, sc administered every 2 days for 3 weeks by ELISA; assay type: functional, organism-based; conditions: time 21.0 day
BRIN-BD11 = assay: Insulinotropic activity in rat BRIN-BD11 cells assessed as increase in insulin secretion incubated for 20 mins by radioimmunoassay; assay type: functional, cell-based; conditions: DDE = dose-dependent effect
Mus musculus [15] = assay: Anti-diabesity activity against DIO C57BL/6 mouse assessed as reduction in body weight at 25 nmol/kg, sc administered every 2 days for 3 weeks; assay type: functional; conditions: C57BL/6, 504 h, time 21 day
Mus musculus [16] = assay: Anti-diabesity activity in db/db mouse assessed as improvement in glucose tolerance at 25 nmol/kg, ip pretreated for 15 mins with CCK-1R antagonist, Lorglumide followed by compound administration and 15 mins later treated with oral glucose and measured upto 120 mins by OGTT; assay type: functional, organism-based; conditions: time 135.0 min
[17] = molecular target: T1, Glucagon-like peptide 1 receptor (Homo sapiens, UniProt P43220); assay: Agonist activity at human GLP-1R expressed in CHO cells assessed as cAMP release incubated for 20 min by HTRF analysis; assay type: functional, cell-based
[18] = molecular target: T1, Glucagon-like peptide 1 receptor; assay: Agonist activity at human GLP-1R expressed in HEK293 cells assessed as cAMP release incubated for 20 min by HTRF analysis; assay type: functional, cell-based; conditions: hek293

T1 sequence (P43220 whole entry): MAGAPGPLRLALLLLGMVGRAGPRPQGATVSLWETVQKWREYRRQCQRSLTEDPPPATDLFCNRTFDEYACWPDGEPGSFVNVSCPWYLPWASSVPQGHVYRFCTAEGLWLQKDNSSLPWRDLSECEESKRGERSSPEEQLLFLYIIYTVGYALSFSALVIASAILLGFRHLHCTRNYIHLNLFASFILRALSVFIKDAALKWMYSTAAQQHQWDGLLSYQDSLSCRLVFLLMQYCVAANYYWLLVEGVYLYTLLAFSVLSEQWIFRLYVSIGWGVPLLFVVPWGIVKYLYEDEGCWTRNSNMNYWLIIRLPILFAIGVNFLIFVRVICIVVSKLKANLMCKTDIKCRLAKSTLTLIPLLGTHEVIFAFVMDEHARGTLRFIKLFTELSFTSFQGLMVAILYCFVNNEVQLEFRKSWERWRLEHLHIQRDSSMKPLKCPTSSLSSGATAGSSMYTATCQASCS

Q: Which Activity [1] does the source give for `CCCC[C@H](NC(=O)[C@H](Cc1ccc(CS(=O)(=O)O)cc1)NC(=O)[C@H](CC(=O)O)NC(=O)COCCOCCNC(=O)COCCOCCNC(=O)[C@H](CCCNC(=N)N)NC(=O)CNC(=O)[C@H](CCCCN)NC(=O)[C@@H](NC(=O)[C@H](CC(C)C)NC(=O)[C@H](Cc1c[nH]c2ccccc12)NC(=O)[C@H](C)NC(=O)[C@@H](NC(=O)[C@H](Cc1ccccc1)NC(=O)[C@H](CCC(=O)O)NC(=O)[C@H](CCCCNC(=O)COCCOCCNC(=O)COCCOCCNC(=O)CC[C@H](NC(=O)CCCCCCCCCCCCCCCCC(=O)O)C(=O)O)NC(=O)[C@H](C)NC(=O)[C@H](C)NC(=O)[C@H](CCC(N)=O)NC(=O)CNC(=O)[C@H](CCC(=O)O)NC(=O)[C@H](CC(C)C)NC(=O)[C@H](Cc1ccc(O)cc1)NC(=O)[C@H](CO)NC(=O)[C@H](CO)NC(=O)[C@@H](NC(=O)[C@H](CC(=O)O)NC(=O)[C@H](CO)NC(=O)[C@@H](NC(=O)[C@H](Cc1ccccc1)NC(=O)[C@@H](NC(=O)CNC(=O)[C@H](CCC(=O)O)NC(=O)[C@H](C)NC(=O)[C@@H](N)Cc1cnc[nH]1)[C@@H](C)O)[C@@H](C)O)C(C)C)[C@@H](C)CC)C(C)C)C(=O)NCC(=O)N[C@@H](Cc1c[nH]c2ccccc12)C(=O)N[C@@H](CCCC)C(=O)N(C)[C@H](CC(=O)O)C(=O)N(C)[C@@H](Cc1ccccc1)C(N)=O` here?
A: Its Activity is “Non-Toxic”.

Q: And the Activity (Mus musculus [2])?
A: The Activity was “Active”.

Q: And the Activity (Mus musculus [3])?
A: Its Activity is “Active”.

Q: What about the Activity [4] of the same compound?
A: The Activity was “Non-Toxic”.

Q: What about the Activity (Mus musculus [5]) of the same compound?
A: Its Activity is “Active”.

Q: What about the Activity (Mus musculus [6]) of the same compound?
A: Its Activity is “Active”.

Q: What about the Activity (Mus musculus [7]) of the same compound?
A: Its Activity is “Active”.

Q: And the Activity (Mus musculus [8])?
A: Its Activity is “Active”.

Q: What about the Activity (Mus musculus [9]) of the same compound?
A: Its Activity is “Active”.

Q: What about the Activity (Mus musculus [10]) of the same compound?
A: The Activity was “Active”.

Q: And the Activity (Mus musculus [11])?
A: The Activity was “Active”.

Q: What about the Activity (Mus musculus [12]) of the same compound?
A: The Activity was “Dde”.

Q: What about the Activity (Mus musculus [13]) of the same compound?
A: The Activity was “Active”.

Q: What about the Activity (Mus musculus [14]) of the same compound?
A: The Activity was “Active”.

Q: And the Activity (BRIN-BD11)?
A: Its Activity is “Dde”.

Q: What about the inhibition in vivo at 0.025 µmol/kg (Mus musculus [15]) of the same compound?
A: The inhibition in vivo at 0.025 µmol/kg was 27.3%.

Q: And the Activity (Mus musculus [16])?
A: The Activity was “Active”.

Q: Which results are given for `CCCC[C@H](NC(=O)[C@H](Cc1ccc(CS(=O)(=O)O)cc1)NC(=O)[C@H](CC(=O)O)NC(=O)COCCOCCNC(=O)COCCOCCNC(=O)[C@H](CCCCN)NC(=O)CNC(=O)[C@H](CCCCN)NC(=O)[C@@H](NC(=O)[C@H](CC(C)C)NC(=O)[C@H](Cc1c[nH]c2ccccc12)NC(=O)[C@H](CCC(=O)O)NC(=O)[C@@H](NC(=O)[C@H](Cc1ccccc1)NC(=O)[C@H](CCC(=O)O)NC(=O)[C@H](CCCCNC(=O)COCCOCCNC(=O)COCCOCCNC(=O)CC[C@H](NC(=O)CCCCCCCCCCCCCCCCC(=O)O)C(=O)O)NC(=O)[C@H](C)NC(=O)[C@H](C)NC(=O)[C@H](CCC(=O)O)NC(=O)[C@H](CCC(=O)O)NC(=O)[C@H](CCC(=O)O)NC(=O)[C@H](CC(C)C)NC(=O)[C@@H](NC(=O)[C@H](CCC(=O)O)NC(=O)[C@@H](NC(=O)[C@@H](NC(=O)[C@H](CC(=O)O)NC(=O)[C@H](CC(N)=O)NC(=O)[C@@H](NC(=O)[C@H](Cc1ccc(O)cc1)NC(=O)[C@@H](NC(=O)CNC(=O)[C@H](CCC(=O)O)NC(=O)C(C)(C)NC(=O)[C@@H](N)Cc1cnc[nH]1)[C@@H](C)O)[C@@H](C)O)C(C)C)[C@@H](C)O)[C@@H](C)O)[C@@H](C)CC)[C@@H](C)CC)C(=O)NCC(=O)N[C@@H](Cc1c[nH]c2ccccc12)C(=O)N[C@@H](CCCC)C(=O)N(C)[C@H](CC(=O)O)C(=O)N(C)[C@@H](Cc1ccccc1)C(N)=O`?
A: Activity [1]: Non-Toxic; Activity (Mus musculus [2]): Active; Activity (Mus musculus [3]): Active; Activity [4]: Non-Toxic; Activity (Mus musculus [5]): Active; Activity (Mus musculus [7]): Active; EC50 [17]: 0.057 nM; Activity (Mus musculus [8]): Active; Activity (Mus musculus [9]): Active; Activity (Mus musculus [10]): Active; Activity (Mus musculus [11]): Active; Activity (Mus musculus [12]): Dde; EC50 [18]: 0.074 nM; Activity (Mus musculus [13]): Active; Activity (Mus musculus [14]): Active; Activity (BRIN-BD11): Dde; inhibition in vivo at 0.025 µmol/kg (Mus musculus [15]): 29.8%; Activity (Mus musculus [16]): Active
